Data on 9 compounds can be found in the OPERA property sets (Mansouri et al. 2018).

Broadly, the logP is a log measure of how a compound divides between an organic and an aqueous phase. Low readings indicate lower lipophilicity, high ones higher lipophilicity. As usually defined, the solubility is the dissolved amount per volume that the medium holds.

The structures appear in SMILES notation. ≈ marks a conversion by molar mass, not a printed value.

Settings in one data set: not given
Turning to `CCOP(=S)(OCC)SCS(=O)(=O)CC`, the logP came out at 1.99.

Still in this data set, the particulars now being: 20 °C.
As to `CCOP(=O)(OCC)Oc1ccc([N+](=O)[O-])cc1`, the solubility stood at 8720 µM (≈ 2400 µg/mL). That is a millimolar value.
On the same count and under the same terms, then `CCOP(=S)(OCC)SCCSCC`, with 59.4 µM (≈ 16.3 µg/mL); and `CCOP(=S)(OCC)SCS(=O)C(C)(C)C` (stereo not given), with 3610 µM (≈ 1100 µg/mL); and `CCOP(=S)(OCC)Oc1ccc(S(C)(=O)=O)cc1`, with 2300 µM (≈ 746 µg/mL).
Still for that read-out and setting: then `CCOP(=S)(OCC)SCS(=O)(=O)CC`, with 2950 µM (≈ 861 µg/mL).
The same measure, in the same setting: under `CCOP(=S)(OCC)SCCS(=O)(=O)CC` stands 2880 µM (≈ 883 µg/mL).
In turn, `COP(=S)(OC)Oc1cc(Cl)c(Br)cc1Cl` showed a solubility of 0.82 µM (≈ 0.3 µg/mL).
`CCOP(=S)(OCC)SCS(=O)CC` (stereo not given) registered a solubility of 28900 µM (≈ 8000 µg/mL).

The data set is the same for the next values; noted with them: 25 °C.
As to `CNC(=O)ON=CC(C)(C)SC`, the solubility was determined as 31700 µM (≈ 6030 µg/mL).
